Patent publication US10471092B2, “Combination of hyaluronic acid and macrogol and pharmaceutical compositions containing it” (APHARM S.r.l., priority 2015, dated 2019)
Values joined by “and” are separate entries in the source; they are usually repeats but may differ in a detail not shown here. Equal values may be shown once.

Legend:
Format in all cases: in vivo, rat
rats [1] = assay: Evaluation of the amount of stool (number of expelled pellets)
Protocol: (§1) Intestinal transit, colon peristalsis and the amount of stool expelled have been evaluated on rats, after the administration of different individual doses of macrogol and sodium hyaluronate and of the combination of the invention.
In Table 3 it is possible to observe an increase in the number of expelled pellets from the rat after the PEG (365-1460 mg/kg p.o. without water and […] p.o. with water) and 20-50 mg/kg hyaluronate treatment in both conditions. […] A greater number of expelled pellets have been induced by the combination of 730 mg/kg p.o. PEG with 30 and 50 mg/kg p.o. sodium hyaluronate+water. […] By administering a dose of 487 mg/kg PEG+50 mg/kg p.o. sodium hyaluronate+water, the number of expelled pellets is equal to that one that can be observed with 730 mg/kg p.o. PEG and 30 mg/kg p.o. sodium hyaluronate. […] The stool expulsion has been monitored for each rat, starting from 1 h after the administration of the preparations (Martinez e Taché, Brain Res. 893: 29-35, 2001).

rats [2] = assay: Colon propulsion, glass bead expulsion from distal colon (Raffa et al.; Lopez)
Text: as §1
In this case all the values are significant with respect to the same treatment without water. […] Analogously to what observed in tab. […] The reduction of expulsion time results to be dose dependent, being in all the cases clearly evident and statistically significant with respect to the PEG+water dose. […] Propulsion of distal colon has been measured according to the method of Raffa et al. (Life Sci., 41: 2229-34, 1987) and of Lopez (Dig. Dis. Sci., 29:551, 1984). 30 min after the administration of the preparations, a 5 mm diameter glass bead has been inserted in the distal colon of each rat at 3 cm from the anus. The parameter taken as the reference was the time required by each rat to expel the bead. The lower the expulsion time, the highest the colon propulsion.

rats [3] = assay: Intestinal transit, activated carbon feed (method of Schulz et al); details: for % of increase of intestinal transit with respect to: rats
Protocol: as §1
On the other hand, such a parameter is increased with a dose-response behavior at the same doses by adding 0.3 ml of water administered per os. as well. In fact, the percentage increase values range from +10% at the 365 mg/kg p.o. dose of PEG to +23% at the 1560 mg/kg p.o. dose. […] Interesting results, under the same experimental conditions, have been obtained with the combination of PEG and sodium hyaluronate.
The experiment has been carried out following the method of Schulz et al (NS Arch. Pharmacol. 308:255-260, 1979) by using an activated carbon feed. 1.5 ml of a 20% (w/v) activated carbon suspension in a 5% (w/v) gum arabic solution has been administered by gavage to 24 hrs starved rats with free access to water. The rats have been sacrificed 10 min after receiving the activated carbon feed and their intestine has been completely removed. The transit in the small intestine has been calculated for each rat as the ratio between the traveled distance of the activated carbon feed and the total length of the intestine itself. Data are expressed as the percentage of transit in treated rats with respect to controls that have been considered as 100. Administration of the preparations occurred 30 min before sacrificing the animal.

[4] = 20 mg/kg p.o. IALURONATE, no water
[5] = 30 mg/kg p.o. IALURONATE, no water
[6] = 50 mg/kg p.o. IALURONATE, no water

Substance: polyethylene glycol [PEG]
- No of pellets after 60 min (rats [1]; 365 mg/kg p.o. PEG + Water 2 ml): 0
- No of pellets after 60 min (rats [1]; 365 mg/kg p.o. PEG, no water): 0
- No of pellets after 60 min (rats [1]; 487 mg/kg p.o. PEG + Water 2 ml): 2
- No of pellets after 60 min (rats [1]; 730 mg/kg p.o. PEG + Water 2 ml): 3
- No of pellets after 60 min (rats [1]; 730 mg/kg p.o. PEG, no water): 0
- No of pellets after 60 min (rats [1]; 973 mg/kg p.o. PEG + Water 2 ml): 3
- No of pellets after 60 min (rats [1]; 973 mg/kg p.o. PEG, no water): 1
- No of pellets after 60 min (rats [1]; 1460 mg/kg p.o. PEG, no water): 1
- No of pellets after 60 min (rats [1]; 1560 mg/kg p.o. PEG + Water 2 ml): 3
- Bead Expulsion time (rats [2]; 365 mg/kg p.o. PEG + Water 0.3 ml, rats): 153 ± 13 s
- Bead Expulsion time (rats [2]; 365 mg/kg p.o. PEG, no water, rats): 202 ± 11 s
- Bead Expulsion time (rats [2]; 487 mg/kg p.o. PEG + Water 0.3 ml, rats): 135 ± 19 s
- Bead Expulsion time (rats [2]; 730 mg/kg p.o. PEG + Water 0.3 ml, rats): 128 ± 16 s
- Bead Expulsion time (rats [2]; 730 mg/kg p.o. PEG, no water, rats): 181 ± 9 s
- Bead Expulsion time (rats [2]; 973 mg/kg p.o. PEG + Water 0.3 ml, rats): 116 ± 18 s
- Bead Expulsion time (rats [2]; 973 mg/kg p.o. PEG, no water, rats): 185 ± 12 s
- Bead Expulsion time (rats [2]; 1460 mg/kg p.o. PEG, no water, rats): 173 ± 15 s
- Bead Expulsion time (rats [2]; 1560 mg/kg p.o. PEG + Water 0.3 ml, rats): 93 ± 9 s
- colon propulsion activity (rats [2]; PEG 365 to 1560 mg/kg p.o. with simultaneous intake of water, vs same treatment without water, rats): statistically significant effect
- colon propulsion activity (rats [2]; PEG alone, without simultaneous administration of water by gavage, rats): does not modify
- % of increase of intestinal transit with respect to (rats [3]; 365 mg/kg p.o. PEG + Water 0.3 ml): 10% and 10.8%
- % of increase of intestinal transit with respect to (rats [3]; 365 mg/kg p.o. PEG, no water): 9.4%
- % of increase of intestinal transit with respect to (rats [3]; 487 mg/kg p.o. PEG + Water 0.3 ml): 11.5%
- % of increase of intestinal transit with respect to (rats [3]; 730 mg/kg p.o. PEG + Water 0.3 ml): 15.3%
- % of increase of intestinal transit with respect to (rats [3]; 730 mg/kg p.o. PEG, no water): 6.7%
- % of increase of intestinal transit with respect to (rats [3]; 973 mg/kg p.o. PEG + Water 0.3 ml): 18.6%
- % of increase of intestinal transit with respect to (rats [3]; 973 mg/kg p.o. PEG, no water): 8.8%
- % of increase of intestinal transit with respect to (rats [3]; 1460 mg/kg p.o. PEG, no water): 8.6%
- % of increase of intestinal transit with respect to (rats [3]; 1560 mg/kg p.o. PEG + Water 0.3 ml): 23% and 23.2%
- intestinal motility (rats [3]; PEG by gavage, 365 to 1460 mg/kg p.o., without water, rat): does not induce a significant increase

Substance: sodium hyaluronate [IALURONATE]
- No of pellets after 60 min (rats [1]; 20 mg/kg p.o. IALURONATE + Water 2 ml): 2
- No of pellets after 60 min (rats [1]; [4]): 0
- No of pellets after 60 min (rats [1]; 30 mg/kg p.o. IALURONATE + Water 2 ml): 2
- No of pellets after 60 min (rats [1]; [5]): 1
- No of pellets after 60 min (rats [1]; 50 mg/kg p.o. IALURONATE + Water 2 ml): 3
- No of pellets after 60 min (rats [1]; [6]): 1
- Bead Expulsion time (rats [2]; 20 mg/kg p.o. IALURONATE + Water 0.3 ml, rats): 129 ± 14 s
- Bead Expulsion time (rats [2]; 20 mg/kg p.o. IALURONATE, no water, rats): 195 ± 12 s
- Bead Expulsion time (rats [2]; 30 mg/kg p.o. IALURONATE + Water 0.3 ml, rats): 120 ± 11 s
- Bead Expulsion time (rats [2]; 30 mg/kg p.o. IALURONATE, no water, rats): 191 ± 16 s
- Bead Expulsion time (rats [2]; 50 mg/kg p.o. IALURONATE + Water 0.3 ml, rats): 114 ± 15 s
- Bead Expulsion time (rats [2]; 50 mg/kg p.o. IALURONATE, no water, rats): 188 ± 21 s
- expulsion time of the bead (rats [2]; sodium hyaluronate 20-50 mg/kg p.o. by gavage, no water, rats): does not modify
- expulsion time of the bead (rats [2]; sodium hyaluronate 20-50 mg/kg p.o., rat intakes water (0.2 ml)): the effect is very evident
- % of increase of intestinal transit with respect to (rats [3]; 20 mg/kg p.o. IALURONATE + Water 0.3 ml): 17.0%
- % of increase of intestinal transit with respect to (rats [3]; [4]): 0%
- % of increase of intestinal transit with respect to (rats [3]; 30 mg/kg p.o. IALURONATE + Water 0.3 ml): 19.6%
- % of increase of intestinal transit with respect to (rats [3]; [5]): 3.8%
- % of increase of intestinal transit with respect to (rats [3]; 50 mg/kg p.o. IALURONATE + Water 0.3 ml): 20.3%
- % of increase of intestinal transit with respect to (rats [3]; [6]): 4.2%
- intestinal transit (rats [3]; sodium hyaluronate 20-50 mg/kg p.o., without simultaneous intake of water, rat): does not induce an increase
